Source: PubChem BioAssay AID330 (DTP/NCI, 2004)
Several values for one entry are separate records, joined by “and”; a condition that tells them apart may be missing. Equal entries are not always repeated. Inconclusive results and toxic doses are left out. How the source made its calls: active means survival T/C of 150% or more; inactive means T/C below 125% in these data.

Tested on: P388 leukemia ip, CD2F1 mice, survival T/C
Experiment: NCI In Vivo Anticancer Drug Screen. Data for tumor model P388 Leukemia (intraperitoneal) in CD2F1 (CDF1) mice
Conditions: endpoint: median survival time, higher = longer survival
Outline: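 Mice carrying the transplanted tumor received test compound or vehicle. Survival was recorded in each group, and the value is the treated-group measurement divided by that of the vehicle-treated control group.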

[1] = dose: 50.0 mg/kg/injection, schedule: Q01DX005 (ip), vehicle: Klucel (hydroxypropylcellulose) (HPC)
[2] = dose: 100.0 mg/kg/injection, schedule: Q01DX005 (ip), vehicle: Klucel (hydroxypropylcellulose) (HPC)
[3] = dose: 200.0 mg/kg/injection, schedule: Q01DX005 (ip), vehicle: Klucel (hydroxypropylcellulose) (HPC)
[4] = dose: 60.0 mg/kg/injection, schedule: Q01DX005 (ip), vehicle: saline with Tween-80
[5] = dose: 120.0 mg/kg/injection, schedule: Q01DX005 (ip), vehicle: saline with Tween-80
[6] = dose: 240.0 mg/kg/injection, schedule: Q01DX005 (ip), vehicle: saline with Tween-80
[7] = dose: 50.0 mg/kg/injection, schedule: Q01DX009 (ip), vehicle: saline with Tween-80
[8] = dose: 100.0 mg/kg/injection, schedule: Q01DX009 (ip), vehicle: saline with Tween-80
[9] = dose: 200.0 mg/kg/injection, schedule: Q01DX009 (ip), vehicle: saline with Tween-80
[10] = dose: 50.0 mg/kg/injection, schedule: Q01DX005 (ip), vehicle: saline with Tween-80
[11] = dose: 100.0 mg/kg/injection, schedule: Q01DX005 (ip), vehicle: saline with Tween-80

Measured: T/C

CN(C)/C(=N\O)c1ccccc1
inactive: dose: 3.12 mg/kg/injection, schedule: Q04DX003 (ip), vehicle: saline 100 % of control and 105 % of control | dose: 6.25 mg/kg/injection, schedule: Q04DX003 (ip), vehicle: saline 100 % of control and 90 % of control | dose: 12.5 mg/kg/injection, schedule: Q04DX003 (ip), vehicle: saline 100 % of control and 95 % of control

O=S(=O)(O)O
inactive: dose: 30.0 mg/kg/injection, schedule: Q01DX009 (ip), vehicle: water 108 % of control | dose: 100.0 mg/kg/injection, schedule: Q01DX009 (ip), vehicle: water 86 % of control

CSC1=Nc2ccccc2SC(c2ccccc2)C1c1ccccc1 (stereo not given)
inactive: [1] 99 % of control | [2] 95 % of control | [3] 96 % of control

O=c1[nH]c2cc(Cl)ccc2nc1/C=C(\O)c1ccco1
inactive: [4] 102 % of control | [5] 94 % of control | [6] 102 % of control

CC(=O)NCCc1nc(-c2nc(C(=O)NCCC[S+](C)C)cs2)cs1
inactive: dose: 1.56 mg/kg/injection, schedule: Q01DX005 (ip), vehicle: saline with Tween-80 107 % of control | dose: 3.13 mg/kg/injection, schedule: Q01DX005 (ip), vehicle: saline with Tween-80 107 % of control | dose: 6.25 mg/kg/injection, schedule: Q01DX005 (ip), vehicle: saline with Tween-80 100 % of control and 105 % of control | dose: 25.0 mg/kg/injection, schedule: Q01DX005 (ip), vehicle: saline with Tween-80 96 % of control

CCCN=C(C)NO
inactive: dose: 50.0 mg/kg/injection, schedule: Q01DX005 (ip), vehicle: saline 98 % of control | dose: 100.0 mg/kg/injection, schedule: Q01DX005 (ip), vehicle: saline 101 % of control | dose: 200.0 mg/kg/injection, schedule: Q01DX005 (ip), vehicle: saline 102 % of control

CC(C)(C)SC(=O)CCl
inactive: dose: 100.0 mg/kg/injection, schedule: Q04DX003 (ip), vehicle: saline with Tween-80 116 % of control | dose: 200.0 mg/kg/injection, schedule: Q04DX003 (ip), vehicle: saline with Tween-80 89 % of control

Oc1cc(O)c2c(c1)OC(c1ccc(O)c(O)c1)C(O)C2O (stereo not given)
inactive: dose: 50.0 mg/kg/injection, schedule: Q01DX005 (ip), vehicle: saline + Tween-80 + alcohol 98 % of control | dose: 100.0 mg/kg/injection, schedule: Q01DX005 (ip), vehicle: saline + Tween-80 + alcohol 98 % of control | dose: 200.0 mg/kg/injection, schedule: Q01DX005 (ip), vehicle: saline + Tween-80 + alcohol 92 % of control

CS/C(=C\c1ccc(C(=O)c2ccc(C)cc2)n1C)S(C)=O (stereo not given)
inactive: dose: 30.0 mg/kg/injection, schedule: Q01DX005 (ip), vehicle: Klucel (hydroxypropylcellulose) (HPC) 94 % of control | dose: 60.0 mg/kg/injection, schedule: Q01DX005 (ip), vehicle: Klucel (hydroxypropylcellulose) (HPC) 91 % of control and 94 % of control | dose: 120.0 mg/kg/injection, schedule: Q01DX005 (ip), vehicle: Klucel (hydroxypropylcellulose) (HPC) 92 % of control | dose: 240.0 mg/kg/injection, schedule: Q01DX005 (ip), vehicle: Klucel (hydroxypropylcellulose) (HPC) 88 % of control

NC(=S)N/N=C/c1ccncc1
inactive: dose: 25.0 mg/kg/injection, schedule: Q01DX009 (ip), vehicle: saline with Tween-80 108 % of control | [7] 98 % of control | [8] 101 % of control | [9] 92 % of control

c1ccc2[nH]c(N=Nc3cccc4ccccc34)cc2c1
inactive: dose: 25.0 mg/kg/injection, schedule: Q01DX009 (ip), vehicle: other 93 % of control and 95 % of control | dose: 50.0 mg/kg/injection, schedule: Q01DX009 (ip), vehicle: other 100 % of control | [7] 99 % of control | dose: 100.0 mg/kg/injection, schedule: Q01DX009 (ip), vehicle: other 100 % of control and 94 % of control | [8] 108 % of control and 115 % of control | dose: 200.0 mg/kg/injection, schedule: Q01DX009 (ip), vehicle: other 98 % of control and 100 % of control | [9] 115 % of control | dose: 400.0 mg/kg/injection, schedule: Q01DX009 (ip), vehicle: saline with Tween-80 98 % of control

O=c1cc2[nH]c3ccccc3c(=O)n2[nH]1
inactive: [1] 98 % of control | [2] 97 % of control | [3] 95 % of control

O=c1ccn2c(n1)OC1C(O)C(CO)OC12 (stereo not given)
inactive: dose: 50.0 mg/kg/injection, schedule: Q04DX003 (ip), vehicle: saline 100 % of control | dose: 100.0 mg/kg/injection, schedule: Q04DX003 (ip), vehicle: saline 103 % of control | dose: 200.0 mg/kg/injection, schedule: Q04DX003 (ip), vehicle: saline 102 % of control | dose: 400.0 mg/kg/injection, schedule: Q04DX003 (ip), vehicle: saline 91 % of control

NC(=S)c1ccccc1N=Cc1cccs1
inactive: dose: 100.0 mg/kg/injection, schedule: Q01DX001 (ip), vehicle: saline 100 % of control | dose: 200.0 mg/kg/injection, schedule: Q01DX001 (ip), vehicle: saline 102 % of control | dose: 400.0 mg/kg/injection, schedule: Q01DX001 (ip), vehicle: saline 98 % of control

CN(C)CCCC1(O)c2ccccc2CCc2ccccc21
inactive: dose: 12.5 mg/kg/injection, schedule: Q01DX009 (ip), vehicle: saline 103 % of control | dose: 25.0 mg/kg/injection, schedule: Q01DX009 (ip), vehicle: saline 108 % of control | dose: 50.0 mg/kg/injection, schedule: Q01DX009 (ip), vehicle: saline 101 % of control and 119 % of control | dose: 100.0 mg/kg/injection, schedule: Q01DX009 (ip), vehicle: saline 94 % of control

COc1ccc(/C=N/NC(=S)NC23CC4CC(CC(C4)C2)C3)cc1OC
inactive: dose: 15.0 mg/kg/injection, schedule: Q01DX005 (ip), vehicle: saline with Tween-80 93 % of control | dose: 30.0 mg/kg/injection, schedule: Q01DX005 (ip), vehicle: saline with Tween-80 89 % of control | [4] 89 % of control

CCCCCCCCCCCCCCCCOc1ccc(S(=O)(=O)c2ccccc2)cc1[N+](=O)[O-]
inactive: dose: 25.0 mg/kg/injection, schedule: Q04DX003 (ip), vehicle: saline sonified 100 % of control | dose: 50.0 mg/kg/injection, schedule: Q04DX003 (ip), vehicle: saline sonified 100 % of control | dose: 100.0 mg/kg/injection, schedule: Q04DX003 (ip), vehicle: saline sonified 90 % of control

O=[N+]([O-])c1ccc(N/N=C/CCl)c([N+](=O)[O-])c1
inactive: dose: 11.0 mg/kg/injection, schedule: Q04DX003 (ip), vehicle: Klucel (hydroxypropylcellulose) (HPC) 100 % of control | dose: 11.0 mg/kg/injection, schedule: Q04DX003 (ip), vehicle: saline with Tween-80 108 % of control | dose: 16.5 mg/kg/injection, schedule: Q04DX003 (ip), vehicle: Klucel (hydroxypropylcellulose) (HPC) 100 % of control | dose: 16.5 mg/kg/injection, schedule: Q04DX003 (ip), vehicle: saline with Tween-80 100 % of control | dose: 25.0 mg/kg/injection, schedule: Q04DX003 (ip), vehicle: Klucel (hydroxypropylcellulose) (HPC) 98 % of control | dose: 25.0 mg/kg/injection, schedule: Q04DX003 (ip), vehicle: saline with Tween-80 108 % of control | dose: 37.5 mg/kg/injection, schedule: Q04DX003 (ip), vehicle: Klucel (hydroxypropylcellulose) (HPC) 97 % of control | dose: 37.5 mg/kg/injection, schedule: Q04DX003 (ip), vehicle: saline with Tween-80 104 % of control

Cc1c(C)n(C)c(=S)n(C)c1=S
inactive: [1] 97 % of control | [2] 99 % of control | [3] 97 % of control

ClCCN1c2ccccc2Sc2ccc3ccccc3c21
inactive: [10] 89 % of control | [11] 93 % of control

Nc1nc2ncc(CNc3ccc(C(=O)NC(CCC(=O)O)C(=O)O)cc3)cc2c(=O)[nH]1 (stereo not given)
inactive: [10] 100 % of control | [11] 117 % of control | dose: 200.0 mg/kg/injection, schedule: Q01DX005 (ip), vehicle: saline with Tween-80 102 % of control

O=S(=O)(O/C(=C(\OS(=O)(=O)C(F)(F)C(F)(F)C(F)(F)C(F)(F)F)c1ccccc1)c1ccccc1)C(F)(F)C(F)(F)C(F)(F)C(F)(F)F
inactive: [4] 99 % of control | [5] 107 % of control | [6] 99 % of control

Cc1ccc2c(c1)sc1nncn12
inactive: dose: 50.0 mg/kg/injection, schedule: Q01DX009 (ip), vehicle: Klucel (hydroxypropylcellulose) (HPC) 94 % of control | dose: 100.0 mg/kg/injection, schedule: Q01DX009 (ip), vehicle: Klucel (hydroxypropylcellulose) (HPC) 105 % of control
